Patent US6342501B1, “Pyrrolo[2,3-d] pyrimidines as antiviral agents” (The Regents of the University of Michigan, priority 1994, dated 2002)
Like-named read-outs stand apart in the source and are kept apart here.

Tests used:
[1] = system: human cytomegalovirus (HCMV); experiment: microbe, parasite or virus in culture; assay type: cell-based, Towne strain; conditions: for IC50: Human betaherpesvirus 5, HFF, read-out: HCMV; for antiviral activity against HCMV (in words): comment on Table 1 data
Procedure: (§1) The routine growth and passage of KB and BSC-1 cells was performed in monolayer cultures using minimal essential medium (MEM) with either Hanks salts [MEM(H)] or Earle salts [MEM(E)] supplemented with 10% calf serum. The sodium bicarbonate concentration was varied to meet the buffering capacity required. Cultures of diploid human foreskin fibroblast (HFF) or MRC-5 cells were grown in medium consisting of MEM(E) with 10% fetal bovine serum. Cells were passaged at 1:2 to 1:10 dilutions according to conventional procedures by using 0.05% trypsin plus 0.02% EDTA in a HEPES buffered salt solution (HBS) [Shipman, C., Jr., Proc. Soc. […] HFF and MRC-5 cells were passaged only at 1:2 dilutions. The Towne strain, plaque-purified isolate Po, of HCMV was kindly provided by Dr. Mark Stinski, University of Iowa. The KOS strain of HSV-1 was used in most experiments and was provided by Dr. Sandra K. Weller, University of Conn.
Stock HCMV was prepared by infecting HFF cells at a multiplicity of infection (m.o.i.) of <0.01 plaque-forming units (p.f.u.) per cell. Cell growth medium was changed every four days until cytopathology was evident in all cells (approximately 21 days). Supernatant fluids were retained as the virus stock.
Virus titers were determined using monolayer cultures of HFF cells for HCMV and monolayer cultures of BSC-1 cells for HSV-1 as described earlier [Prichard, M. N., et al., J. Virol. […] Briefly, HFF or BSC-1 cells were planted as described above in 96-well cluster dishes and incubated overnight at 37. degree. C. in a humidified 3% C02 -97% air atmosphere. The next day cultures were inoculated with HCMV or HSV-1 and serially diluted 1:3 across the remaining eleven columns of the 96-well plate. Cultures were incubated at 37. degree. C. for 2 hr to permit virus adsorption and then virus inoculum was replaced with 0.2 ml of fresh medium. Cultures were incubated for seven days for HCMV, two or three days for HSV-1, the medium was removed, and the cell sheets were stained with 0.1% crystal violet in 20% methanol.
HFF cells in 24-well cluster dishes were infected with approximately 100 p.f.u. of HCMV per cm^2 cell sheet using the procedures detailed above. Following virus adsorption, compounds dissolved in growth medium were added to duplicate wells in four to eight selected concentrations. After incubation at 37° C. for 7 to 10 days, cell sheets were fixed, stained with crystal violet and microscopic plaques enumerated as described above.
After virus adsorption, inoculum was replaced with 0.2 mL of fresh medium containing test compounds. The first row of 12 wells was left undisturbed and served as virus controls. Each well in the second row received an additional 0.1 mL of medium with test compound at three times the desired final concentration. The contents of the 12 wells were mixed by repeated pipetting and then serially diluted 1:3 along the remaining wells. In this manner, six compounds could be tested in duplicate on a single plate with concentrations from […]. Plates were incubated at 37° C. for seven days, subjected to one cycle of freezing and thawing; aliquots from each of the eight wells of a given column were transferred to the first column of a fresh 96-well monolayer culture of HFF cells. Contents were mixed and serially diluted 1:3 across the remaining eleven columns of the secondary plate. Each column of the original primary plate was diluted across a separate plate in this manner. Cultures were incubated, plaques were enumerated, and titers calculated as described above.
(§2) Dose-response relationships were constructed by linearly regressing the percent inhibition of parameters derived in the preceding sections against logarithm 10 drug concentrations. […] Samples containing positive controls (acyclovir for HSV-1 and ganciclovir for HCMV) were used in all assays.

[2] = system: human foreskin fibroblasts (HFF cells); experiment: Cytotoxicity in stationary HFF cells (microscopic inspection of plaque assay cells); assay type: cell-based; conditions: read-out: HFF
Procedure: (§3) Two different assays were used to explore cytotoxicity of selected compounds: (i) Cytotoxicity produced in stationary HFF cells was determined by microscopic inspection of cells used in plaque assays which were not affected by the virus [Turk, S. R., et al, Antimicrob.
as §2

[3] = system: herpes simplex virus type 1 (HSV-1); experiment: HSV-1 ELISA in BSC-1 cells; assay type: cell-based, KOS strain; conditions: read-out: HSV-1
Procedure: as §1
High titer HSV-1 stocks were prepared by infecting BSC cells at an m.o.i. of <0.1 as detailed previously [Turk, S. R., et al., Antimicrob.
Ninety-six-well cluster dishes were planted with 10,000 BSC-1 cells per well in 200 μL per well of MEM(E) plus 10% calf serum. After overnight incubation at 37° C., selected drug concentrations in quadruplicate and HSV-1 at a concentration of 100 p.f.u./well were added. Following a 3-day incubation at 37° C., medium was removed, plates were blocked, rinsed, and horse radish peroxidase conjugated rabbit anti-HSV-1 antibody was added. Following removal of the antibody containing solution, plates were rinsed, and then developed by adding 150 μL per well of a solution of tetramethylbenzidine as substrate. The reaction was stopped with H2SO4 and absorbance was read at 450 and 570 nm. Drug effects were calculated as a percentage of the reduction in absorbance in the presence of each drug concentration compared to absorbance obtained with virus in the absence of drug.
as §2

KB cells = experiment: Cytotoxicity: KB cell growth (crystal violet staining); assay type: cell-based; conditions: Homo sapiens, read-out: KBgrv
Procedure: as §3
Briefly, 96-well cluster dishes were planted with KB cells at 3000-5000 cells per well. After overnight incubation at 37° C., test compound was added in quadruplicate at six to eight concentrations. Plates were incubated at 37° C for 48 hours in a CO2 incubator, rinsed, fixed with 95% ethanol, and stained with 0.1% crystal violet. Acidified ethanol was added and plates read at 570 nm in a spectrophotometer designed to read 96-well ELISA assay plates.
as §2

[4] = Table 1, cytotoxicity, stationary HFF cells, visual
[5] = Human alphaherpesvirus 1, 72 h, Table 1, fifty-percent inhibitory concentration, ELISA, BSC-1 cells, 3-day incubation
[6] = Table 1, cytotoxicity, KB cell growth, 48 hours
[7] = Human alphaherpesvirus 1, BSC-1, 72 h

## N#Cc1cn(CCCc2ccccc2)c2ncnc(N)c12 [Compound 1362, 4-amino-7-(3-phenyl)propyl-pyrrolo[2,3-d]pyrimidine-5-carbonitrile]
[1]
  IC50: > 10 µM
[2]; [4]
  IC50: > 10 µM
[3]; [5]
  IC50: > 100 µM
KB cells; [6]
  IC50: > 100 µM

## N#Cc1cn(Cc2cccc([N+](=O)[O-])c2)c2ncnc(N)c12 [Compound 1382, 4-amino-7-(3-nitrobenzyl)-pyrrolo[2,3-d]pyrimidine-5-carbonitrile]
[1]
  IC50: > 10 µM
[2]; [4]
  IC50: > 10 µM
[3]; [5]
  IC50: > 100 µM
KB cells; [6]
  IC50: > 100 µM

## NC(=O)c1c(Br)n(Cc2ccc(Cl)cc2)c2ncnc(N)c12 [Compound 1443, 4-amino-6-bromo-7-(4-chlorobenzyl)-pyrrolo[2,3-d]pyrimidine-5-carboxamide]
[1]
  IC50: > 10 µM
[2]; HFF
  IC50: > 10 µM
[3]; [7]
  IC50: > 100 µM
KB cells; KB, 48 h
  IC50: > 100 µM

## N#Cc1c(Br)n(Cc2cccc(Cl)c2)c2ncnc(N)c12 [Compound 1461, 4-amino-6-bromo-7-(3-chlorobenzyl)-pyrrolo[2,3-d]pyrimidine-5-carbonitrile]
[1]
  IC50: > 100 µM
[2]; [4]
  IC50: > 100 µM
[3]; [5]
  IC50: > 100 µM
KB cells; [6]
  IC50: > 100 µM

## N#Cc1cn(Cc2ccc(Cl)cc2)c2ncnc(N)c12 [Compound 1444, 4-amino-7-(4-chlorobenzyl)-pyrrolo[2,3-d]pyrimidine-5-carbonitrile]
[1]
  IC50: 0.8 µM
  antiviral activity against HCMV (in words): good to excellent antiviral activity
[2]; [4]
  IC50: > 10 µM
[3]; [5]
  IC50: 85 µM
KB cells; [6]
  IC50: > 100 µM

## N#Cc1c(Br)n(Cc2ccc([N+](=O)[O-])cc2)c2ncnc(N)c12 [Compound 1331, 4-amino-6-bromo-7-(4-nitrobenzyl)-pyrrolo[2,3-d]pyrimidine-5-carbonitrile]
[1]
  IC50: > 10 µM
[2]; [4]
  IC50: > 10 µM
[3]; [5]
  IC50: > 100 µM
KB cells; [6]
  IC50: > 100 µM

## NC(=O)c1cn(Cc2ccccc2)c2ncnc(N)c12 [Compound 659, 4-amino-7-benzyl-pyrrolo[2,3-d]pyrimidine-5-carboxamide]
[1]
  IC50: 171 µM
[2]; HFF
  IC50: 118 µM
[3]; [7]
  IC50: 32.6 µM
KB cells; KB, 48 h
  IC50: 75 µM

## NC(=S)c1cn(CCCc2ccccc2)c2ncnc(N)c12 [Compound 1413, 4-amino-7-(3-phenyl)propyl-pyrrolo[2,3-d]pyrimidine-5-thiocarboxamide]
[1]
  IC50: 0.5 µM
  antiviral activity against HCMV (in words): excellent activity
[2]; [4]
  IC50: 32 µM
[3]; [5]
  IC50: 1.5 µM
KB cells; [6]
  IC50: 38 µM

## Cc1ccc(Cn2c(Br)c(C#N)c3c(=O)[nH]cnc32)cc1 [Compound 1441, 4-oxo-6-bromo-7-(4-methylbenzyl)-pyrrolo[2,3-d]pyrimidine-5-carbonitrile]
[1]
  IC50: 21 µM
[2]; [4]
  IC50: 100 µM
[3]; [5]
  IC50: 90 µM
KB cells; [6]
  IC50: 16 µM

## N#Cc1c(Br)n(Cc2ccc(F)cc2)c2ncnc(N)c12 [Compound 1353, 4-amino-6-bromo-7-(4-flurobenzyl)-pyrrolo[2,3-d]pyrimidine-5-carbonitrile]
[1]
  IC50: 1.4 µM
[2]; [4]
  IC50: 116 µM
[3]; [5]
  IC50: 60 µM
KB cells; [6]
  IC50: > 100 µM

## N#Cc1c(N)n(Cc2cccc([N+](=O)[O-])c2)c2ncnc(N)c12 [Compound 1425, 4,6-diamino-7-(3-nitrobenzyl)-pyrrolo[2,3-d]pyrimidine-5-carbonitrile]
[1]
  IC50: 5 µM
  antiviral activity against HCMV (in words): Some activity
[2]; [4]
  IC50: > 100 µM
[3]; [5]
  IC50: > 100 µM
KB cells; [6]
  IC50: > 100 µM

## N#Cc1c(N)n(Cc2ccc(N)cc2)c2ncnc(N)c12 [Compound 1352, 4,6-diamino-7-(4-aminobenzyl)-pyrrolo[2,3-d]pyrimidine-5-carbonitrile]
[1]
  IC50: > 100 µM
  antiviral activity against HCMV (in words): good to excellent antiviral activity
[2]; [4]
  IC50: > 100 µM
[3]; [5]
  IC50: 100 µM
KB cells; [6]
  IC50: 146 µM

## N#Cc1c(N)n(CCCc2ccccc2)c2ncnc(N)c12 [Compound 1350, 4,6-diamino-7-(3-phenyl)propyl-pyrrolo[2,3-d]pyrimidine-5-carbonitrile]
[1]
  IC50: 5 µM
  antiviral activity against HCMV (in words): excellent activity
[2]; [4]
  IC50: > 100 µM
[3]; [5]
  IC50: 121 µM
KB cells; [6]
  IC50: 50 µM

## NC(=O)c1cn(CCCc2ccccc2)c2ncnc(N)c12 [Compound 1376, 4-amino-7-(3-phenyl)propyl-pyrrolo[2,3-d]pyrimidine-5-carboxamide]
[1]
  IC50: 28 µM
[2]; [4]
  IC50: 100 µM
[3]; [5]
  IC50: 35 µM
KB cells; [6]
  IC50: 70 µM

## N#Cc1c(N)n(Cc2cccc(N)c2)c2ncnc(N)c12 [Compound 1455, 4,6-diamino-7-(3-aminobenzyl)-pyrrolo[2,3-d]pyrimidine-5-carbonitrile]
[1]
  IC50: 6.5 µM
  antiviral activity against HCMV (in words): Some activity
[2]; [4]
  IC50: > 100 µM
[3]; [5]
  IC50: > 100 µM
KB cells; [6]
  IC50: 40 µM

## NC(=O)c1cn(Cc2cccc([N+](=O)[O-])c2)c2ncnc(N)c12 [Compound 1421, 4-amino-7-(3-nitrobenzyl)-pyrrolo[2,3-d]pyrimidine-5-carboxamide]
[1]
  IC50: 42 µM
[2]; HFF
  IC50: > 100 µM
[3]; [7]
  IC50: > 100 µM
KB cells; KB, 48 h
  IC50: > 100 µM

## N#Cc1c(Br)n(CCCc2ccccc2)c2ncnc(N)c12 [Compound 1347, 4-amino-6-bromo-7-(3-phenyl)propyl-pyrrolo[2,3-d]pyrimidine-5-carbonitrile]
[1]
  IC50: > 10 µM
[2]; [4]
  IC50: > 10 µM
[3]; [5]
  IC50: ≥ 222 µM
KB cells; [6]
  IC50: > 100 µM

## N#Cc1c(N)n(Cc2ccc([N+](=O)[O-])cc2)c2ncnc(N)c12 [Compound 1348, 4,6-diamino-7-(4-nitrobenzyl)-pyrrolo[2,3-d]pyrimidine-5-carbonitrile]
[1]
  IC50: 0.6 µM
  antiviral activity against HCMV (in words): good to excellent antiviral activity
[2]; [4]
  IC50: > 10 µM
[3]; [5]
  IC50: 156 µM
KB cells; [6]
  IC50: > 100 µM

## CNc1ncnc2c1c(C#N)c(Br)n2CCc1ccccc1 [Compound 1463, 4-methylamino-6-bromo-7-(2-phenyl)ethyl-pyrrolo[2,3-d]pyrimidine-5-carbonitrile]
[1]
  IC50: > 10 µM
[2]; [4]
  IC50: > 10 µM

## NC(=O)c1cn(Cc2ccc([N+](=O)[O-])cc2)c2ncnc(N)c12 [Compound 1412, 4-amino-7-(4-nitrobenzyl)-pyrrolo[2,3-d]pyrimidine-5-carboxamide]
[1]
  IC50: 5 µM
  antiviral activity against HCMV (in words): good to excellent antiviral activity
[2]; HFF
  IC50: 100 µM
[3]; [7]
  IC50: 45 µM
KB cells; KB, 48 h
  IC50: > 100 µM
